How the values were obtained:
Experiment in all cases: radiometric filter-binding kinase assay
Details in all cases: compound 100.0 µM
HIPK2 (human) = HIPK2 (human) (UniProt Q9H2X6)
GSK3B (human) = GSK3B (human) (UniProt P49841)
BTK (human) = BTK (human) (UniProt Q06187)
DYRK1A (human) = DYRK1A (human) (UniProt Q13627)
MAPK13 (human) = MAPK13 (human) (UniProt O15264)
MAPK10 (human) = MAPK10 (human) (UniProt P53779)
DYRK3 (human) = DYRK3 (human) (UniProt O43781)
MINK1 (human) = MINK1 (human) (UniProt Q8N4C8)
MAPK14 (human) = MAPK14 (human) (UniProt Q16539)
MAPKAPK3 (human) = MAPKAPK3 (human) (UniProt Q16644)
TTK (human) = TTK (human) (UniProt P33981)
PLK1 (human) = PLK1 (human) (UniProt P53350)
MAPK9 (human) = MAPK9 (human) (UniProt P45984)
CHEK2 (human) = CHEK2 (human) (UniProt O96017)
AURKB (human) = AURKB (human) (UniProt Q96GD4)
ERBB4 (human) = ERBB4 (human) (UniProt Q15303)
INSR (human) = INSR (human) (UniProt P06213)
MAPK12 (human) = MAPK12 (human) (UniProt P53778)
MAPK1 (human) = MAPK1 (human) (UniProt P28482)
PIM3 (human) = PIM3 (human) (UniProt Q86V86)
NEK2 (human) = NEK2 (human) (UniProt P51955)
MAPK3 (human) = MAPK3 (human) (UniProt P27361)
MAPK8 (human) = MAPK8 (human) (UniProt P45983)
MAPK8 (human), sequence (P45983 whole entry, looked up): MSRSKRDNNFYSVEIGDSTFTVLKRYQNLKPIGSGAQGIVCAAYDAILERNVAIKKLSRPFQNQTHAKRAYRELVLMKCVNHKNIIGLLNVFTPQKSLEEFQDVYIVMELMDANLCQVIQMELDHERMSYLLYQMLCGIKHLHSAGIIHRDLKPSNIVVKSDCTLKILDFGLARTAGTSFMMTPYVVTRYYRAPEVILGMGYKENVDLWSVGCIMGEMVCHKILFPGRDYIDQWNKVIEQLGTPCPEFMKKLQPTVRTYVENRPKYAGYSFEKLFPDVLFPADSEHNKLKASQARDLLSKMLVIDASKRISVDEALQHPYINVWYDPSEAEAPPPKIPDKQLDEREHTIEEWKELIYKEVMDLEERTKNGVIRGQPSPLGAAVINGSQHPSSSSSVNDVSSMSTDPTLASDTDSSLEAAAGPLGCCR

DYRK2 (human) = DYRK2 (human) (UniProt Q92630)
NUAK1 (human) = NUAK1 (human) (UniProt O60285)
AURKA (human) = AURKA (human) (UniProt O14965)
[1] = tested on: AKT2 (human), P31751 [S474D]
MAP3K11 (human) = MAP3K11 (human) (UniProt Q16584)
MAP3K11 (human), sequence (Q16584 whole entry, looked up): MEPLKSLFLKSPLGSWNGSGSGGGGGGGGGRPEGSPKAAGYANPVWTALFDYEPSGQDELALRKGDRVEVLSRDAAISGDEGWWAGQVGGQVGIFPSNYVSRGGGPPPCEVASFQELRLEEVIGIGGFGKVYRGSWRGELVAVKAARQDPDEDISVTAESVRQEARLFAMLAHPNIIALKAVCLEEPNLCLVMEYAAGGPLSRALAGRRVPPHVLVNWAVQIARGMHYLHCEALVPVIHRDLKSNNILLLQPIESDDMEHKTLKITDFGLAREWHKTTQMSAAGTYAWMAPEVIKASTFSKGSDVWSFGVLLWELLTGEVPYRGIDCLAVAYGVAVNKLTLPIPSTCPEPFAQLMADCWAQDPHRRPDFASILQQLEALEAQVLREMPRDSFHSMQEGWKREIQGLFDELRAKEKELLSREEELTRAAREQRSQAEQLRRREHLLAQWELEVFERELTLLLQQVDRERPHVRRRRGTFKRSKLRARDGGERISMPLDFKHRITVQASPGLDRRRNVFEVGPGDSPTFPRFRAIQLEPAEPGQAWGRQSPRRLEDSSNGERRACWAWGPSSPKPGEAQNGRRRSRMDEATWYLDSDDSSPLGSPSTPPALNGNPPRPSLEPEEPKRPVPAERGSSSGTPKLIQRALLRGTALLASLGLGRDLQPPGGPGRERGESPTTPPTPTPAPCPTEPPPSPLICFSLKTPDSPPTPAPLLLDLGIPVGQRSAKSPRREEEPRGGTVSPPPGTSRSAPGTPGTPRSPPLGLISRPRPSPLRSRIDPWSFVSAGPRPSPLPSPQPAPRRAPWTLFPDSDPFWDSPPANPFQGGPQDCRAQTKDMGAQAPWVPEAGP

INSRR (human) = INSRR (human) (UniProt P14616)
IKBKE (human) = IKBKE (human) (UniProt Q14164)
MAPK11 (human) = MAPK11 (human) (UniProt Q15759)
MAPK11 (human), sequence (Q15759 whole entry, looked up): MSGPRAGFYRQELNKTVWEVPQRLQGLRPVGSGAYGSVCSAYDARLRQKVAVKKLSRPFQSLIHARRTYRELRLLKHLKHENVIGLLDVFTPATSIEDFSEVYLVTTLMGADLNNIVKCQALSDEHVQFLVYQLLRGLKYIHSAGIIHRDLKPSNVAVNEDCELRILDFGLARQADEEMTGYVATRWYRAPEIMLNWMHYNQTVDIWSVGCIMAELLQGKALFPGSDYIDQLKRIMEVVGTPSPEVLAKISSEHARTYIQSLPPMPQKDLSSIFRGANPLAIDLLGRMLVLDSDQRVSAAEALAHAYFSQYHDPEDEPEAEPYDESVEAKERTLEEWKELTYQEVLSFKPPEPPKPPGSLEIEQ

CaMK1 (human) = CaMK1 (human) (UniProt Q14012)
CLK2 (human) = CLK2 (human) (UniProt P49760)
RIPK2 (human) = RIPK2 (human) (UniProt O43353)
RIPK2 (human), sequence (O43353 whole entry, looked up): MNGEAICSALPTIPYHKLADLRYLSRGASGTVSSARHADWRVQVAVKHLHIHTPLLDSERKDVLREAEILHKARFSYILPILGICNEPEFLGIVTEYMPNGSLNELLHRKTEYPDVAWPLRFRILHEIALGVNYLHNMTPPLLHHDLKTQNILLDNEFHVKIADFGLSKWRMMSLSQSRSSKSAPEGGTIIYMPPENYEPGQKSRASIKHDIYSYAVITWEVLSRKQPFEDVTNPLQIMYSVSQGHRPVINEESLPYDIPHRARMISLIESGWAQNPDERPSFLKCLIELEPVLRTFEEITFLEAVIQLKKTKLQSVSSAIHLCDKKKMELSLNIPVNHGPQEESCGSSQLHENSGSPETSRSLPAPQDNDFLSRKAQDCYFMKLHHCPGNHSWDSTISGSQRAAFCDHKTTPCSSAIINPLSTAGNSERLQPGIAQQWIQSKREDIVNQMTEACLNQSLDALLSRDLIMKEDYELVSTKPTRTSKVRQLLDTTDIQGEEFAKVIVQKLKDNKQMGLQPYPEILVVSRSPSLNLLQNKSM

MAPKAPK2 (human) = MAPKAPK2 (human) (UniProt P49137)
RPS6KA3 KD1 KD2 (human) = RPS6KA3 KD1 KD2 (human) (UniProt P51812)
RPS6KA3 KD1 KD2 (human), sequence (P51812 whole entry, looked up): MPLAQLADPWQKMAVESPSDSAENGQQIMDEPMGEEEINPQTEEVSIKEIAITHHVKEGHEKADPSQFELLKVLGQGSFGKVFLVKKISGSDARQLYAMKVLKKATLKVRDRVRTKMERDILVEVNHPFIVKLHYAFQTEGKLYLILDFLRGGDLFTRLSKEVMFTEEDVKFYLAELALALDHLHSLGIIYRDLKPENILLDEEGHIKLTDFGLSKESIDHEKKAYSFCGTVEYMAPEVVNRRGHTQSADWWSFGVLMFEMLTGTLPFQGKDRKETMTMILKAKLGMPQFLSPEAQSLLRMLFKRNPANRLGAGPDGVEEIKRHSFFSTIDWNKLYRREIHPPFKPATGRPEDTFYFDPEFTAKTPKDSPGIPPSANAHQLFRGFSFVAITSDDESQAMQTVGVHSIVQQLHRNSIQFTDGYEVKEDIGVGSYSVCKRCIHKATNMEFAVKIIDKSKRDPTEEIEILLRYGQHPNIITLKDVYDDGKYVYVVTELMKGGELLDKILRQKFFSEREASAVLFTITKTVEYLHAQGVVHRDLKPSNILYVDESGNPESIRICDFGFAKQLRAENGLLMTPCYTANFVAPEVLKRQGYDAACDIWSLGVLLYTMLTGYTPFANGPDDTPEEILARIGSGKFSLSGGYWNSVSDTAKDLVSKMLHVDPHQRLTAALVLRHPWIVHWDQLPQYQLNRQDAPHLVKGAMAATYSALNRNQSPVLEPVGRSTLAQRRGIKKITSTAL

PIM1 (human) = PIM1 (human) (UniProt P11309)
PIM1 (human), sequence (P11309 whole entry, looked up): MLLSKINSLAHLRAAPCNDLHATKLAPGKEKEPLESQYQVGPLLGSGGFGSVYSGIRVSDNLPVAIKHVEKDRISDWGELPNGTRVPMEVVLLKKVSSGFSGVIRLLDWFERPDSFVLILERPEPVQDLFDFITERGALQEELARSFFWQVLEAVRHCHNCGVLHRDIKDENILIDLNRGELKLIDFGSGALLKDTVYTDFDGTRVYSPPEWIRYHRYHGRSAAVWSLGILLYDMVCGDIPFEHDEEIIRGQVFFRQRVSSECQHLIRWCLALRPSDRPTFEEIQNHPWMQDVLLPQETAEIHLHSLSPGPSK

MARK2 (human) = MARK2 (human) (UniProt Q7KZI7)
FLT1 (human) = FLT1 (human) (UniProt P17948)
FGFR1 (human) = FGFR1 (human) (UniProt P11362)
MAP3K9 (human) = MAP3K9 (human) (UniProt P80192)
MAP3K9 (human), sequence (P80192 whole entry, looked up): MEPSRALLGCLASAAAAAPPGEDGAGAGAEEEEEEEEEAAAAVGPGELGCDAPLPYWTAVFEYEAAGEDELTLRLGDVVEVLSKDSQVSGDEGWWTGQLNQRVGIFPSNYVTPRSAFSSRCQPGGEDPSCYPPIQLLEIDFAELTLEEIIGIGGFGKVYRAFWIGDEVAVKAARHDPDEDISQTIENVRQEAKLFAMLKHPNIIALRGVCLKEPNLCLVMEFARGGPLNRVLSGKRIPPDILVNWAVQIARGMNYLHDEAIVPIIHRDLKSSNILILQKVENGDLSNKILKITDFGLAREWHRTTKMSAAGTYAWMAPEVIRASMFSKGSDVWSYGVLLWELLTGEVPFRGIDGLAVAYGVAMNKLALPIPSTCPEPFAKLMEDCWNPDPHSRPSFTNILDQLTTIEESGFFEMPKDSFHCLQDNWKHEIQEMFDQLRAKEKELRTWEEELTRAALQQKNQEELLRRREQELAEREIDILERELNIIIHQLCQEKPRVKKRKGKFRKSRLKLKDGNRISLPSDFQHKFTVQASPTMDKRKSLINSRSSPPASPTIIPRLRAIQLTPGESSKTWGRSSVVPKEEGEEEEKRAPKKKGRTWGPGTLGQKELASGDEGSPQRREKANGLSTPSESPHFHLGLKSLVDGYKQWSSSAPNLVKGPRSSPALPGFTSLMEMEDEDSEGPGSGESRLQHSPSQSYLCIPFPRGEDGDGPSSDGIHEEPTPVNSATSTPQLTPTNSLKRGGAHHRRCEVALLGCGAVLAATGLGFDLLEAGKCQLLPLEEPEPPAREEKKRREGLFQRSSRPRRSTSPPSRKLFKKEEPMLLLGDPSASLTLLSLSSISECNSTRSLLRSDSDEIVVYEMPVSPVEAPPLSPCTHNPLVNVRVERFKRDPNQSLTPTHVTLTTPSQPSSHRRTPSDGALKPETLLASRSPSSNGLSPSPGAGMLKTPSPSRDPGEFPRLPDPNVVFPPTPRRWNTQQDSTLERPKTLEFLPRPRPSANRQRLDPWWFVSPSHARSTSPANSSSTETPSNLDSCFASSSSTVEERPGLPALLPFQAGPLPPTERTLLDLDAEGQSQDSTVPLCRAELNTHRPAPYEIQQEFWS

BTK (human), sequence (Q06187 whole entry, looked up): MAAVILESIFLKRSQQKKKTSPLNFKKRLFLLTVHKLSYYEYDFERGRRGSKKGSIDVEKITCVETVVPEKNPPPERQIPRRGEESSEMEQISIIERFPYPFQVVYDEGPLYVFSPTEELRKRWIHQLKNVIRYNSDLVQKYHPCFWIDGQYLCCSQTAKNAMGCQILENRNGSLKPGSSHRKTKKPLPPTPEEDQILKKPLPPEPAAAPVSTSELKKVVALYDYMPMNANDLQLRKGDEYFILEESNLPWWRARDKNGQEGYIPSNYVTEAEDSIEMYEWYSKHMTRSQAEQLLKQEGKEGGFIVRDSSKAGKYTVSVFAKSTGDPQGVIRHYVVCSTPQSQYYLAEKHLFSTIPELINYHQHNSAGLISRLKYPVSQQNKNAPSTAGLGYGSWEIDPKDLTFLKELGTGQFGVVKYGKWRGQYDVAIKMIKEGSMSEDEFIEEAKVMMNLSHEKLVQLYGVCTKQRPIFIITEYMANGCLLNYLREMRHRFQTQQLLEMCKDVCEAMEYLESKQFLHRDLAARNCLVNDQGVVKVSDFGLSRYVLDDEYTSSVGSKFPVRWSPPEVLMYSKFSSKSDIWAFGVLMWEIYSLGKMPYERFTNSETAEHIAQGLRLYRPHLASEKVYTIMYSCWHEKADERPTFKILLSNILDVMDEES

## Cc1cccc(Nc2nc(-c3sc(N)nc3C)cs2)n1
HIPK2 (human)
  residual activity: 7%
GSK3B (human)
  residual activity: 78%
BTK (human)
  residual activity: 21%
DYRK1A (human)
  residual activity: 18%
MAPK13 (human)
  residual activity: 65%
MAPK10 (human)
  residual activity: 80%
DYRK3 (human)
  residual activity: 23%
MINK1 (human)
  residual activity: 2%
MAPK14 (human)
  residual activity: 36%
MAPKAPK3 (human)
  residual activity: 8%
TTK (human)
  residual activity: 44%
PLK1 (human)
  residual activity: 90%
MAPK9 (human)
  residual activity: 88%
CHEK2 (human)
  residual activity: 41%
AURKB (human)
  residual activity: 5%
ERBB4 (human)
  residual activity: 19%
INSR (human)
  residual activity: 99%
MAPK12 (human)
  residual activity: 60%
MAPK1 (human)
  residual activity: 73%
PIM3 (human)
  residual activity: 6%
NEK2 (human)
  residual activity: 19%
MAPK3 (human)
  residual activity: 19%
MAPK8 (human)
  residual activity: 83%
DYRK2 (human)
  residual activity: 23%
NUAK1 (human)
  residual activity: 14%
AURKA (human)
  residual activity: 7%
[1]
  residual activity: 8%
MAP3K11 (human)
  residual activity: 5%
INSRR (human)
  residual activity: 26%
IKBKE (human)
  residual activity: 9%
MAPK11 (human)
  residual activity: 69%
CaMK1 (human)
  residual activity: 3%
CLK2 (human)
  residual activity: 18%
RIPK2 (human)
  residual activity: 23%
MAPKAPK2 (human)
  residual activity: 8%
RPS6KA3 KD1 KD2 (human)
  residual activity: 11%
PIM1 (human)
  residual activity: 13%
MARK2 (human)
  residual activity: 66%
FLT1 (human)
  residual activity: 12%
FGFR1 (human)
  residual activity: 29%
MAP3K9 (human)
  residual activity: 4%
